# Tests used:
# [1] = tested on: sir2Δfob1Δ mutant strain of yeast; assay: RLS of sir2Δfob1Δ double deletion strain; type: cell-based, Saccharomyces cerevisiae; settings: 25 μM; FIG. 2A
# Procedure: The micromanipulation of the yeast cells was carried out as follows. Prior to analysis, yeast strains BY4741 (WT), BY4741-fob1Δ (fob1Δ), or BY4741-sir2Δfob1Δ (sir2Δfob1Δ) were plated onto fresh solid YEPD medium and grown at 30° C. for two days. Then, individual colonies were picked and grown in solid YEPD media containing: (1) dimethyl sulfoxide (DMSO), (2) 10, 25, or 50 μM PN6, or (3) 25 μM β-sitosterol at 30° C. overnight, and a small number of yeast cells were then plated onto a fresh YEPD plate for lifespan analysis. After overnight growth on the lifespan plates, the cells were arrayed on the plate using a micromanipulator and allowed to grow for approximately 3 hours. Virgin daughter cells were selected and subjected to lifespan analysis. In the lifespan experiments, the plates were incubated at 30° C. during the day and stored at 4° C. overnight. Each experiment consisted of more than 50 mother cells and was independently repeated three times.
# [2] = tested on: tor1Δ deletion strain of yeast; assay: RLS of tor1Δ deletion strain; type: cell-based, Saccharomyces cerevisiae; settings: data not shown
# [3] = target: T1, SIRT1 (Homo sapiens, UniProt Q96EB6); assay: Acetylation of p53 (K382) via UV irradiation, western blot, U2OS cells; type: cell-based; settings: 10-100 μM PN6, FIGS. 2C-2D
# T1 construct: endogenous in cells; host or cells: U2OS cells; IMR90 cells
# T1 sequence (Q96EB6 1-747): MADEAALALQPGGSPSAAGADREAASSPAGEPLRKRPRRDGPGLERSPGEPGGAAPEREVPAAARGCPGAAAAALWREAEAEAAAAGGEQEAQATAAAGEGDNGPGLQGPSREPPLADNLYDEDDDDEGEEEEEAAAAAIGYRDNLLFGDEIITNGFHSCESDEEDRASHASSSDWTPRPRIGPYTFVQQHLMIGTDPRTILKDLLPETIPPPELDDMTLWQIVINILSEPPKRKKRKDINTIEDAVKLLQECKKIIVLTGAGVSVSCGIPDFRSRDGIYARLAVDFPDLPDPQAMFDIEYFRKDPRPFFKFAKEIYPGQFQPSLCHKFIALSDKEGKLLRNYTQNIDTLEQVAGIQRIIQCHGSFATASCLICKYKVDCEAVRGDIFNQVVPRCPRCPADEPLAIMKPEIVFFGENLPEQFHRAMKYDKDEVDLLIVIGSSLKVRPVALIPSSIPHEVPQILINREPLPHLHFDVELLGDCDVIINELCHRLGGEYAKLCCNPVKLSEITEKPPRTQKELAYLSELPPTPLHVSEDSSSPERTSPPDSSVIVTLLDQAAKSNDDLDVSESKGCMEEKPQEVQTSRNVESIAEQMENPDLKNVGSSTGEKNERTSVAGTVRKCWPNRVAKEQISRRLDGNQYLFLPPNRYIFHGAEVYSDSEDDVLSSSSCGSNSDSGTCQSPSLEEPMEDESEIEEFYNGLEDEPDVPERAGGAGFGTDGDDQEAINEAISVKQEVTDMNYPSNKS
# Procedure: U2OS cells (1.2×10^5 cells/dish) or IMR90 cells (3.0×10^5 cells/dish) were seeded into a 3.5 cm culture dish, and incubated with 0, 10, 25, 50, or 100 μM PN6 for 16 hours, before subjected to UVB irradiation at 7.5 mJ/m^2 (for U2OS cells) or 5.0 mJ/m^2 (for IMR90 cells) for 4 hours.
# Cells were harvested with a 1.25× Laemmli buffer and lysed in RIPA lysis buffer containing 1% of Triton X-100 and a protease inhibitor cocktail, and total protein concentrations were measured with a protein assay kit. Proteins in the samples of the lysates with the same amounts of total protein were separated by sodium dodecyl sulfate polyacrylamide gel electrophoresis (SDS-PAGE) (10% polyacrylamide gels) and analyzed by immunoblotting. Primary antibodies against p53ac (K382) (1:1,000), p21 (1:1,000), and 3-actin (1:200,000) were applied to detect the corresponding proteins. Horseradish peroxidase (HRP)-conjugated secondary antibodies against mouse IgG were then incubated with the membranes, and proteins were visualized by chemiluminescence according to the manufacturer's instructions. Protein quantification was performed by software.
# [4] = tested on: aged C57BL/6J mice; assay: Grip strength test; type: in vivo, mouse; settings: forelimbs, hindlimbs and all four limbs; mid-term and long-term; versus SD group; FIGS. 4E-4G
# Procedure: The grip strength of the male C57BL/6J mice was measured at 87 weeks (mid-term) and 111 weeks (long-term) of age using an adjustable metallic grid mounted with a force sensor (DTG-5, DigiTech, JP). To conduct the test, the mice were placed on the aforementioned test device and were held gently by the tail, allowing them to grip the grid with forelimbs, hindlimbs, or four limbs (for measuring 2-paw and 4-paw grip strength, respectively). The device automatically measured and recorded the peak force in grams (g). Five trials were performed for each test, and the mean values were used to determine the grip strength of each mouse. Mid-term: SD, n=30; PN6, n=8; long-term: SD, n=23; PN6, n=8.
# [5] = tested on: aged C57BL/6J mice; assay: Rotarod test; type: in vivo, mouse; settings: rotarod at constant or accelerating speed; mid-term and long-term; versus SD-fed mice; FIGS. 4H-4I
# Procedure: The male C57BL/6J mice were subjected to a rotarod test at 88 weeks (mid-term) and 112 weeks (long-term) of age. The mice underwent a 3-day habituation period, during which they were placed on the rotarod at a constant speed (4 rpm), and were required to remain on the rotarod for 1 minute at a time every day. To conduct the actual test, each mouse was subjected to five trials, with a 10-15 minute rest period between each trial. For each trial, the tests for the constant and accelerated speeds were conducted sequentially according to the following schedule: During a 5-minute trial period, a run consisted of an initial constant rotating speed of 4 rpm and a subsequent accelerated rotating speed accelerated from 4 to 40 rpm was performed 5 times. […] The latency to falling was recorded, and the average latency to falling was calculated for each trial. Data are presented as the average of the 5 trials. Mid-term: SD, n=30; PN6, n=8; long-term: SD, n=22; PN6, n=8.
# [6] = tested on: aged C57BL/6J mice; assay: Metabolic breath analysis test; type: in vivo, mouse; settings: versus SD
# Procedure: The metabolic breath analysis test was carryout out using the OxyletPro System. The male C57BL/6J mice fed a standard rodent chow with or without 50 mg/kg PN6 for 22 weeks (at 72 weeks of age; mid-term) were placed in the metabolic cages of the OxyletPro System for a 24-hour habituation period before actual recordings and remained in the cages for the following 48 hours. The OxyletPro System was equipped with an air supply and switching unit that provided independent flow control to the cage and collected the products produced therein. The gas analyzer was connected in tandem to the OxyletPro System for O2 and CO2 concentration analyses, from which the oxygen consumption (VO2), the carbon dioxide production (VCO2), and the energy expenditure (EE) were automatically calculated. SD, n=12; PN6, n=7.
structure (smiles),measurement,setting,value
"CCC(CC[C@@H](C)C1CCC2C3CC(=O)[C@H]4C[C@@H](O)CC[C@]4(C)C3CC[C@@]21C)C(C)C (stereo in doubt) [PN6, (24S)-3β-hydroxy-5α-stigmastan-6-one]",extension of lifespan of sir2Δfob1Δ mutant strain,[1],unable to extend the lifespan
same,ability to increase yeast RLS upon deletion of the TOR1 gene,[2],not affected
same,degree of acetylation of P53 at K382,[3],decreased in a dose-dependent manner
same,grip strength,[4],increased grip strength
same,motor skills (latency to falling),[5],steadily improved
same,rate of O2 consumption,[6]; FIG. 4L,significantly higher
same,rate of CO2 elimination,[6]; FIG. 4M,significantly higher
same,respiratory quotient,[6]; FIG. 4N,higher
same,energy expenditure,[6]; FIG. 4O,higher

# Reference: patent US20250009763A1, “METHODS FOR EXTENDING LIFESPAN AND/OR DELAYING AGING” (priority 2023, published 2025)
